# Test results: patent US5567722A, “Cyanoguanidines as K-channel blockers” (The Upjohn Company, priority 1995, dated 1996)
# Read-outs that look alike come from different tables or passages of the source.
# Tests used:
# [1] = tested on: K+ channel of rabbit mesenteric artery (RMA); assay: K+ channel antagonism: inhibition of pinacidil-induced relaxation of norepinephrine-contracted rabbit mesenteric artery (RMA) rings; format: cell-based
# Experimental: The results for potassium channel blocking were obtained by using isolated rabbit mesenteric artery (RMA) procedures. Norepinephrine (5 μM) was used to contract the RMA rings twice, with an hour separating the two contractions. During this hour the tissues equilibrated in physiological salt solution at a resting tension of 1 gram. Upon the plateau of the second contraction 1 μM pinacidil was added to all tissues and the resulting relaxation time course was studied for thirty minutes. […] By studying the ability of the test compounds to inhibit this pinacidil-induced relaxation, the degree of potassium antagonism could be determined. The compounds were applied to the tissues for one hour between the two contractions and the pinacidil-induced relaxation was studied in the continuing presence of the compounds. Thus, the total time of pretreatment with the test compound was 75 minutes before the addition of pinacidil. […]
# Data for K^+ channel antagonist activity on rabbit mesenteric artery (RMA) and natriuretic efficacy after […] (IP) administration to rats are collected in Tables III and IV. It was known, for example, that a compound where both methyl groups on the benzylic carbon of Example 9 had been removed was a weak PCO rather than a K^+ channel antagonist. Similarly a compound in which the phenyl was attached directly to the guanidine nitrogen was also a K^+ channel agonist.
# ^a This is a measure of a compound's ability to inhibit the relaxatio
# of norepinephrine (5 μM) contracted rabbit mesenteric artery rings by
# pinacidil (1 μM). It is expressed as percent inhibition (mean ± sem
# at an inhibitor concentration of 5 μM. Compounds with 65% or g greater
# inhibition at 5 μM are considered to be active, with 2065\% inhibition
# [2] = Diuretic screen: 5 h net natriuretic efficacy (urinary Na+ excretion) in rats; format: in vivo, female Harlan Sprague-Dawley rats
# [3] = tested on: K+ channel; conditions: 1 μM; norepinephrine-contracted RMA rings; cited from earlier work
# [4] = Oryctolagus cuniculus, Table IV, lowest concentration giving >20% inhibition or lowest tested, read-out: RMA K+ Channel Antagonism % I (conc. μM)
# [5] = Oryctolagus cuniculus, 0.25 h, Table III, inhibition of relaxation by pinacidil 1 μM at 15 min, mean ± sem (number of rings), >=65% considered active, <20% inactive, read-out: RMA K+ Channel Antagonism % I at 5 μM
# [6] = Oryctolagus cuniculus, Table III footnote, read-out: RMA K+ channel antagonism, Percent inhibition at 0.5 μM
# [7] = Oryctolagus cuniculus, Table III footnote, read-out: RMA K+ channel antagonism, Percent inhibition at 1 μM
structure (smiles),measurement,setting,value
CCN(CC)c1ccc(NC(=NC#N)N[C@H](C)c2ccccc2)cn1 [Compound 33],inhibition at 5 µM,[1]; [4],10.8%
"CCC(NC(=NC#N)Nc1ccc[n+]([O-])c1)c1ccccc1 (centres unmarked) [Compound 54, N""-Cyano-N'-(1-phenylpropyl)-N-(3-pyridyl)guanidine, pyridine N-oxide]",inhibition at 5 µM,[1]; [4],15.4%
CCC(NC(=NC#N)Nc1cccnc1)c1cccc(Cl)c1 (centres unmarked) [Compound 52],inhibition at 0.5 µM,[1]; [4],94%
CNc1ccc(NC(=NC#N)NC(C)c2ccccc2)cn1 (centres unmarked) [Compound 29],inhibition at 5 µM,[1]; [4],63.4%
COCC(NC(=NC#N)Nc1cccnc1)c1ccccc1 (centres unmarked) [Compound 16],inhibition at 5 µM,[1]; [5],51.1 ± 11.6%
N#CN=C(Nc1cccnc1)NC1(c2ccccc2)CC1 [Compound 63],inhibition at 5 µM,[1]; [4],86%
N#CN=C(Nc1cccnc1)NC1(c2ccccc2)CCCC1 [Compound 11],inhibition at 5 µM,[1]; [5],90.4 ± 2.3%
same,inhibition at 0.5 µM,[1]; [6],78.8 ± 4.4%
N#CN=C(Nc1cccnc1)NC(c1ccccc1)C1CCC1 (centres unmarked) [Compound 19],inhibition at 5 µM,[1]; [5],96 ± 2.1%
CCCC(NC(=NC#N)Nc1cccnc1)c1ccccc1 (centres unmarked) [Compound 28],inhibition at 5 µM,[1]; [5],85.2 ± 4.8%
N#CN=C(Nc1cccnc1)N[C@H](CO)c1ccccc1 [Compound 27],inhibition at 5 µM,[1]; [5],92.5 ± 3.1%
CC(C)(NC(=NC#N)Nc1cccnc1)c1ccccc1 [Compound 9],inhibition at 5 µM,[1]; [5],89.5 ± 3.6%
"CC[C@@H](NC(=NC#N)Nc1ccc(N(C)C)nc1)c1ccccc1 [Compound 53, (R)-N""-Cyano-N'-(1-phenylpropyl)-N-[6-(dimethylamino)-3-pyridyl]guanidine]",inhibition at 5 µM,[1]; [4],4.1%
Cc1ccccc1C(C)NC(=NC#N)Nc1cccnc1 (centres unmarked) [Compound 14],inhibition at 5 µM,[1]; [5],58.7 ± 8.3%
"N#CN=C(Nc1cccnc1)NC(c1ccccc1)C1CC1 (centres unmarked) [Compound 17, N""-Cyano-N-(3-pyridyl)-N'-phenylcyclopropylmethylguanidine]",inhibition at 5 µM,[1]; [5],93.3 ± 2.2%
C[C@H](NC(=NC#N)Nc1cccnc1)c1ccccc1 [Compound 8],inhibition at 5 µM,[1]; [5],22.1 ± 21.2%
CCC(NC(=NC#N)Nc1cccnc1)c1cccc(F)c1 (centres unmarked) [Compound 38],inhibition at 0.5 µM,[1]; [4],68.6%
CCC(NC(=NC#N)Nc1ccc(NC(C)=O)nc1)c1ccccc1 (centres unmarked) [Compound 30],inhibition at 5 µM,[1]; [4],0%
N#CN=C(Nc1cccnc1)NC1(c2cccc(Br)c2)CCC1 [Compound 31],inhibition at 0.05 µM,[1]; [4],50%
"C[C@@H](NC(=NC#N)Nc1ccc[n+]([O-])c1)c1ccccc1 [Compound 55, (R)-N""-Cyano-N'-(1-phenylethyl)-N-(3-pyridyl)guanidine, pyridine N-oxide]",inhibition at 5 µM,[1]; [4],16.3%
CC(NC(=NC#N)Nc1cccnc1)c1cccc(C(F)(F)F)c1 (centres unmarked) [Compound 21],inhibition at 5 µM,[1]; [5],85.3 ± 3.2%
COCCCNc1ccc(NC(=NC#N)N[C@H](C)c2ccccc2)cn1 [Compound 57],inhibition at 5 µM,[1]; [4],7.8%
C[C@@H](NC(=NC#N)Nc1ccc(Cl)nc1)c1ccccc1 [Compound 34],inhibition at 1 µM,[1]; [4],49.5%
N#CN=C(Nc1cccnc1)NC1(c2ccccc2)CCCCC1 [Compound 10],inhibition at 5 µM,[1]; [5],85.5 ± 2.2%
CCC(NC(=NC#N)Nc1cccnc1)c1ccccc1F (centres unmarked) [Compound 43],inhibition at 0.05 µM,[1]; [4],30%
"N#CN=C(Nc1cccnc1)NC1(c2ccccc2)CCC1 [Compound 51, N""-Cyano-N-(3-pyridyl)-N'-(1-phenylcyclobutyl)guanidine]",inhibition at 0.5 µM,[1]; [4],82.9%
CCC(NC(=NC#N)Nc1cccnc1)c1cccc(Br)c1 (centres unmarked) [Compound 39],inhibition at 0.5 µM,[1]; [4],87.2%
"CC[C@@H](NC(=NC#N)Nc1ccc(N)nc1)c1ccccc1 [Compound 44, (R)-N-(6-Amino-3-pyridyl)-N""-cyano-N'-(1-phenylpropyl)guanidine]",inhibition at 5 µM,[1]; [4],60%
C[C@@H](NC(=NC#N)Nc1ccc(N(C)C)nc1)c1ccccc1 [Compound 35],inhibition at 5 µM,[1]; [4],10.6%
CC(NC(=NC#N)Nc1cccnc1)c1cccc(F)c1 (centres unmarked) [Compound 50],inhibition at 5 µM,[1]; [4],94.6%
"CC(NC(=NC#N)Nc1cccnc1)c1ccccc1 (racemic) [Compound 7, N""-Cyano-N-(3-pyridyl)-N'-(1-phenyl)ethylguanidine]",inhibition at 5 µM,[1]; [5],65.3 ± 10.2%
CC(NC(=NC#N)Nc1cccnc1)c1cccc(F)c1F (centres unmarked) [Compound 58],inhibition at 0.5 µM,[1]; [4],92.1%
CCNc1ccc(NC(=NC#N)N[C@H](C)c2ccccc2)cn1 [Compound 56],inhibition at 5 µM,[1]; [4],19.1%
CC(NC(=NC#N)Nc1ccc(N)nc1)c1ccccc1 (centres unmarked) [Compound 36],RMA K+ Channel Antagonism % I (conc. μM),"[1]; Table IV, concentration not printed (empty parentheses)",66.5%
CC(N/C(=N\C#N)Nc1ccncc1)C(C)(C)C (centres unmarked) [Pinacidil],inhibition at 5 µM,[1]; [5],0%
same,diuretic response (in words),[2]; 5 mg/kg oral dosage,Antidiuresis
same,5 h Net Natriuretic Efficacy,"[2]; Table III, 5 mg/kg oral dosage (footnote j)",-60 μEq Na+/mg/kg
same,K+ channel dependent vasodilation (in words),[3],maximal K^+ channel dependent vasodilation
Cc1cccc(C(C)NC(=NC#N)Nc2cccnc2)c1 (centres unmarked) [Compound 15],inhibition at 5 µM,[1]; [5],82 ± 3.9%
N#CN=C(Nc1ccc(N)nc1)NC1(c2cccc(F)c2)CCC1 [Compound 47],inhibition at 0.05 µM,[1]; [4],79%
N#CN=C(Nc1cccnc1)NC1(c2cccc(Cl)c2F)CCC1 [Compound 32],inhibition at 0.05 µM,[1]; [4],66%
"N#CN=C(Nc1ccc(N)nc1)NC1(c2ccccc2)CCC1 [Compound 46, N""-Cyano-N-(6-amino-3-pyridyl)-N'-(1-phenylcyclobutyl)guanidine]",inhibition at 0.5 µM,[1]; [4],45%
"C[C@@H](NC(=NC#N)Nc1cccnc1)c1ccccc1 [Compound 1, (R)-N""-Cyano-N-(3-pyridyl)-N'-(1-phenyl)ethylguanidine]",inhibition at 5 µM,[1]; [5],86.3 ± 5%
same,inhibition at 1 µM,[1]; [7],17.1%
same,inhibition at 2.5 µM,"[1]; Oryctolagus cuniculus, Table III footnote, 2.5 μM, read-out: RMA K+ channel antagonism, Percent inhibition at 2.5 μM",88.9 ± 11.2%
CC(NC(=NC#N)Nc1cccnc1)c1cc(Cl)ccc1Cl (centres unmarked) [Compound 24],inhibition at 5 µM,[1]; [5],86.9 ± 4%
CC(C)C(NC(=NC#N)Nc1cccnc1)c1ccccc1 (centres unmarked) [Compound 12],inhibition at 5 µM,[1]; [5],85.5 ± 0.6%
same,inhibition at 0.5 µM,[1]; [6],43.6%
same,inhibition at 1 µM,[1]; [7],78.2 ± 1.9%
CC(C)(C)C(NC(=NC#N)Nc1cccnc1)c1ccccc1 (centres unmarked) [Compound 13],inhibition at 5 µM,[1]; [5],83.2 ± 12%
same,inhibition at 0.5 µM,[1]; [6],82 ± 1.8%
CC(NC(=NC#N)Nc1cccnc1)c1cc(F)cc(F)c1 (centres unmarked) [Compound 40],inhibition at 0.5 µM,[1]; [4],55.5%
CN(C)c1ccc(NC(=NC#N)N[C@H](CO)c2ccccc2)cn1 [Compound 37],inhibition at 5 µM,[1]; [4],6.6%
N#CN=C(Nc1cccnc1)NC1(c2cccc(F)c2F)CCC1 [Compound 48],inhibition at 0.05 µM,[1]; [4],45%
"N#CN=C(Nc1cccnc1)N[C@@H](CO)c1ccccc1 [Compound 4, (R)-N""-Cyano-N'-(2-hydroxy-1-phenylethyl)-N-(3-pyridyl)guanidine]",inhibition at 5 µM,[1]; [5],2.6 ± 1.7%
CC(NC(=NC#N)Nc1cccnc1)c1ccccc1Cl (centres unmarked) [Compound 26],inhibition at 5 µM,[1]; [5],74.7 ± 2.7%
CC(NC(=NC#N)Nc1cccnc1)c1ccc(Cl)c(Cl)c1 (centres unmarked) [Compound 23],inhibition at 5 µM,[1]; [5],90.8 ± 2.8%
"CC[C@@H](NC(=NC#N)Nc1cccnc1)c1ccccc1 [Compound 22, (R) N""-Cyano-N-(3-pyridyl)-N'-(1-phenylpropyl)guanidine]",inhibition at 5 µM,[1]; [5],89 ± 3.2%
same,inhibition at 0.1 µM,"[1]; Oryctolagus cuniculus, Table III footnote, 0.1 μM, read-out: RMA K+ channel antagonism, Percent inhibition at 0.1 μM",5 ± 2%
same,inhibition at 0.25 µM,"[1]; Oryctolagus cuniculus, Table III footnote, 0.25 μM, read-out: RMA K+ channel antagonism, Percent inhibition at 0.25 μM",52 ± 1%
same,inhibition at 0.5 µM,[1]; [6],81.5 ± 5.9%
N#CN=C(Nc1cccnc1)NC1(c2cccc(F)c2)CCC1 [Compound 42],inhibition at 0.05 µM,[1]; [4],50%
CCC(NC(=NC#N)Nc1cccnc1)c1cccc(I)c1 (centres unmarked) [Compound 41],inhibition at 5 µM,[1]; [4],90.1%
N#CN=C(Nc1cccnc1)NC(c1ccccc1)C1CCCC1 (centres unmarked) [Compound 18],inhibition at 5 µM,[1]; [5],88.1 ± 2%
"N#CN=C(Nc1cccnc1)NC1(c2ccccc2)CC=CC1 [Compound 3, N""-Cyano-N'-(1-phenylcyclopent-3-enyl)-N-(3-pyridyl)guanidine]",inhibition at 5 µM,[1]; [5],91%
CC(C)Nc1ccc(NC(=NC#N)N[C@H](C)c2ccccc2)cn1 [Compound 59],inhibition at 5 µM,[1]; [4],8.5%
"CCC(NC(=NC#N)Nc1cccnc1)c1ccccc1 (centres unmarked) [Compound 2, N""-Cyano-N-(3-pyridyl)-N'-(1-phenyl)propylguanidine]",inhibition at 5 µM,[1]; [5],78.8 ± 3.9%
same,inhibition at 1 µM,[1]; [7],25.6 ± 17.2%
CC(NC(=NC#N)Nc1cccnc1)c1cccc(Cl)c1 (centres unmarked) [Compound 25],inhibition at 5 µM,[1]; [5],89.9 ± 0.1%
"N#CN=C(Nc1cccnc1)NC1(c2cccc(Cl)c2)CCC1 [Compound 45, N'-[1-(3-Chlorophenyl)cyclobutyl]-N""-cyano-N-(3-pyridyl)guanidine]",inhibition at 0.05 µM,[1]; [4],91%
CC[C@H](NC(=NC#N)Nc1cccnc1)c1ccccc1 [Compound 20],inhibition at 5 µM,[1]; [5],13.9 ± 7.2%
